Structures can show the parent of a compound that is named as a salt.
Target: T1, full length SGK1 (Homo sapiens, UniProt O00141)
T1 construct: 125 μM full length SGK1 (Life Technologies Part #PR7358A); purchased Life Technologies PR7358A
T1 sequence (O00141 1-431): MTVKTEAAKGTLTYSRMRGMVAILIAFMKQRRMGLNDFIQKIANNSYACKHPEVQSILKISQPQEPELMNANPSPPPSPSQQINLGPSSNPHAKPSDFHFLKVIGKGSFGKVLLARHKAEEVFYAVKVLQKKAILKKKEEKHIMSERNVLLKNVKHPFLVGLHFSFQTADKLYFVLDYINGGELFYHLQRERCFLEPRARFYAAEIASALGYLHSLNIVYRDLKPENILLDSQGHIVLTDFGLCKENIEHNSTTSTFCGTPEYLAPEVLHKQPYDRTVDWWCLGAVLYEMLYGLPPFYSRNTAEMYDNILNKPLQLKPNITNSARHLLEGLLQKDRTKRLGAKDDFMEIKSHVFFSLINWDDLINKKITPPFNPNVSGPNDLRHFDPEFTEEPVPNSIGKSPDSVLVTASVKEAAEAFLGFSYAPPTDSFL
Assay: SGK1 inhibition Assay A (Caliper LabChip electrophoretic separation of fluorescent peptide substrate and phosphorylated product)
Format: biochemical
Settings: Assay A; 20 μM ATP, 40 min incubation; read-out: SGK1 IC50

IC50 [nM]	SMILES
69	Cc1cc(-c2cc(N3CCC[C@@H](NC(=O)c4sc(Cl)cc4OCCN(C)C)C3)c3c(N)ncnn23)cn(C(C)C)c1=O [Example 693, (R)—N-(1-(4-amino-7-(1-isopropyl-5-methyl-6-oxo-1,6-dihydropyridin-3-yl)pyrrolo[2,1-f][1,2,4]triazin-5-yl)piperidin-3-yl)-5-chloro-3-(2-(dimethylamino)ethoxy)thiophene-2-carboxamide]
7	Cc1nc(OC2CCN(C(C)C)CC2)c(C(=O)N[C@@H]2CCCN(c3cc(-c4ccc(C#N)nc4)n4ncnc(N)c34)C2)s1 [Example 363, (R)-N-(1-(4-amino-7-(6-cyanopyridin-3-yl)pyrrolo[2,1-f][1,2,4]triazin-5-yl)piperidin-3-yl)-4-((1-isopropylpiperidin-4-yl)oxy)-2-methylthiazole-5-carboxamide]
4	CN1CCN(CCOc2cc(Cl)sc2C(=O)N[C@@H]2CCCN(c3cc(-c4ccnc(C(F)F)c4)n4ncnc(N)c34)C2)CC1 [Example 342, (R)—N-(1-(4-amino-7-(2-(difluoromethyl)pyridin-4-yl)pyrrolo[2,1-f][1,2,4]triazin-5-yl)piperidin-3-yl)-5-chloro-3-(2-(4-methylpiperazin-1-yl)ethoxy)thiophene-2-carboxamide]
12	Nc1ncnn2c(-c3cc(F)nc(F)c3)cc(N3CCC[C@@H](NC(=O)c4ccc(Cl)s4)C3)c12 [Example 231]
7	N#Cc1ccc(-c2ccc(C(=O)N[C@@H]3CCCN(c4cc(-c5ccnc(C(F)F)c5)n5ncnc(N)c45)C3)s2)cc1 [Example 543, (R)-N-(1-(4-amino-7-(2-(difluoromethyl)pyridin-4-yl)pyrrolo[2,1-f][1,2,4]triazin-5-yl)piperidin-3-yl)-5-(4-cyanophenyl)thiophene-2-carboxamide]
8	COc1cc(C)sc1C(=O)N[C@@H]1CCCN(c2cc(-c3ccc(S(C)(=O)=O)cc3)n3ncnc(N)c23)C1 [Example 100, (R)-N-(1-(4-amino-7-(4-(methylsulfonyl)phenyl)pyrrolo[2,1-f][1,2,4]triazin-5-yl)piperidin-3-yl)-3-methoxy-5-methylthiophene-2-carboxamide]
8	Nc1ncnn2c(-c3cncnc3)cc(N3CCC[C@@H](NC(=O)c4cc5ccccc5s4)C3)c12 [Example 646, (R)-N-(1-(4-amino-7-(pyrimidin-5-yl)pyrrolo[2,1-f][1,2,4]triazin-5-yl)piperidin-3-yl)benzo[b]thiophene-2-carboxamide]
79	Nc1ncnn2c(-c3ccc(NS(=O)(=O)c4cc(Cl)ccc4F)cc3)cc(N3CCC[C@@H](NC(=O)c4ccc(Cl)s4)C3)c12 [Example 346, (R)—N-(1-(4-amino-7-(4-((5-chloro-2-fluorophenyl)sulfonamido)phenyl)pyrrolo[2,1-f][1,2,4]triazin-5-yl)piperidin-3-yl)-5-chlorothiophene-2-carboxamide]
4	Cc1cc(-c2cc(N3CCC[C@@H](NC(=O)c4ccc(C)s4)C3)c3c(N)ncnn23)ccn1 [Example 133, N-[(3R)-1-[4-amino-7-(2-methylpyridin-4-yl)pyrrolo[2,1-f][1,2,4]triazin-5-yl]piperidin-3-yl]-5-methylthiophene-2-carboxamide]
17	CC(=O)N1CC=C(c2cc(N3CCC[C@@H](NC(=O)c4sc(Cl)cc4OC4CN(CCO)C4)C3)c3c(N)ncnn23)C1 [Example 578, (R)-N-(1-(7-(1-acetyl-2,5-dihydro-1H-pyrrol-3-yl)-4-aminopyrrolo[2,1-f][1,2,4]triazin-5-yl)piperidin-3-yl)-5-chloro-3-((1-(2-hydroxyethyl)azetidin-3-yl)oxy)thiophene-2-carboxamide]
3	Nc1ncnn2c(-c3ccc(C(F)F)nc3)cc(N3CCC[C@@H](NC(=O)c4ccc(Cl)s4)C3)c12 [Example 248, (R)-N-(1-(4-amino-7-(6-(difluoromethyl)pyridin-3-yl)pyrrolo[2,1-f][1,2,4]triazin-5-yl)piperidin-3-yl)-5-chlorothiophene-2-carboxamide, TFA]
19	CN(C)CCOc1cc(Cl)sc1C(=O)N[C@@H]1CCCN(c2cc(-c3ccc(-n4cncn4)nc3)n3ncnc(N)c23)C1 [Example 190, (R)-N-(1-(7-(6-(1H-1,2,4-triazol-1-yl)pyridin-3-yl)-4-aminopyrrolo[2,1-f][1,2,4]triazin-5-yl)piperidin-3-yl)-5-chloro-3-(2-(dimethylamino)ethoxy) thiopbene-2-carboxamide]
5	COc1cnccc1-c1cc(N2CCC[C@@H](NC(=O)c3ccc(Cl)s3)C2)c2c(N)ncnn12 [Example 213, (R)-N-(1-(4-amino-7-(3-methoxypyridin-4-yl)pyrrolo[2,1-f][1,2,4]triazin-5-yl)piperidin-3-yl)-5-chlorothiophene-2-carboxamide, TFA]
17	COC(=O)N1CC=C(c2cc(N3CCC[C@@H](NC(=O)c4sc(Cl)cc4OCCN4CCC(F)(F)C4)C3)c3c(N)ncnn23)C1 [Example 285, Methyl (R)-3-(4-amino-5-(3-(5-chloro-3-(2-(3,3-difluoropyrrolidin-1-yl)ethoxy)thiophene-2-carboxamido)piperidin-1-yl)pyrrolo[2,1-f][1,2,4]triazin-7-yl)-2,5-dihydro-1H-pyrrole-1-carboxylate]
22	CS(=O)(=O)c1ccc(-c2cc(N3CCC[C@@H](NC(=O)c4ccn[nH]4)C3)c3c(N)ncnn23)cc1 [Example 38, (R)-N-(1-(4-amino-7-(4-(methylsulfonyl)phenyl)pyrrolo[2,1-f][1,2,4]triazin-5-yl)piperidin-3-yl)-1H-pyrazole-5-carboxamide]
10	CCc1ccc(C(=O)N[C@@H]2CCCN(c3cc(-c4ccc(S(C)(=O)=O)cc4)n4ncnc(N)c34)C2)s1 [Example 91, (R)-N-(1-(4-amino-7-(4-(methylsulfonyl)phenyl)pyrrolo[2,1-f][1,2,4]triazin-5-yl)piperidin-3-yl)-5-ethylthiophone-2-carboxamide]
188	Cc1ccc(C(=O)N[C@@H]2CCCN(c3c(Br)c(-c4ccc(S(C)(=O)=O)cc4)n4ncnc(N)c34)C2)s1 [Example 194, N-[(3R)-1-[4-amino-6-bromo-7-(4-methanesulfonylphenyl)pyrrolo[2,1-f][1,2,4]triazin-5-yl]piperidin-3-yl]-5-methylthiophene-2-carboxamide]
11	Nc1ncnn2c(C3=CCN(C(=O)C4CCS(=O)(=O)C4)C3)cc(N3CCC[C@@H](NC(=O)c4ccc(Cl)s4)C3)c12 (stereo partly drawn) [Example 905, N-((3R)-1-(4-amino-7-(1-(1,1-dioxidotetrahydrothiophene-3-carbonyl)-2,5-dihydro-1H-pyrrol-3-yl)pyrrolo[2,1-f][1,2,4]triazin-5-yl)piperidin-3-y1)-5-chlorothiophene-2-carboxamide]
1	CC(=O)N1CC=C(c2cc(N3CCC[C@@H](NC(=O)c4cccc(N5C[C@@H](C)N[C@@H](C)C5)n4)C3)c3c(N)ncnn23)C1 [Example 774, N-((R)-1-(7-(1-acetyl-2,5-dihydro-1H-pyrrol-3-yl)-4-aminopyrrolo[2,1-f][1,2,4]triazin-5-yl)piperidin-3-yl)-6-((3S,5R)-3,5-dimethylpiperazin-1-yl)picolinamide]
6	COc1c(C(=O)N[C@@H]2CCCN(c3cc(-c4ccnc(F)c4)n4ncnc(N)c34)C2)csc1Cl [Example 158, (R)-N-(1-(4-amino-7-(2-fluoropyridin-4-yl)pyrrolo[2,1-f][1,2,4]triazin-5-yl)piperidin-3-yl)-5-chloro-4-methoxythiophene-3-carboxamide]
12	Cc1cc(C(=O)N[C@@H]2CCCN(c3cc(C4=CCN(S(C)(=O)=O)C4)n4ncnc(N)c34)C2)ccn1 [Example 116, (R)—N-(1-(4-amino-7-(1-(methylsulfonyl)-2,5-dihydro-1H-pyrrol-3-yl)pyrrolo[2,1-f][1,2,4]triazin-5-yl)piperidin-3-yl)-2-methylisonicotinamide]
72	CC(=O)N1CC=C(c2cc(N3CCC[C@@H](NC(=O)c4cccc(N5CCC(C)(O)CC5)n4)C3)c3c(N)ncnn23)C1 [Example 772, (R)-N-(1-(7-(1-acetyl-2,5-dihydro-1H-pyrrol-3-yl)-4-aminopyrrolo[2,1-f][1,2,4]triazin-5-yl)piperidin-3-yl)-6-(4-hydroxy-4-methylpiperidin-1-yl)picolinamide]
3400	CC(C)(C)OC(=O)N[C@@H]1CCCCN(c2cc(-c3ccc(S(C)(=O)=O)cc3)n3ncnc(N)c23)C1 [Example 120, tert-butyl (R)-(1-(4-amino-7-(4-(methylsulfonyl)phenyl)pyrrolo[2,1-f][1,2,4]triazin-5-yl)azepan-3-yl)carbamate]
15	Nc1ncnn2c(C3=CCN(C(=O)[C@H]4CCCCN4)C3)cc(N3CCC[C@@H](NC(=O)c4ccc(Cl)s4)C3)c12 [Example 892, N-((R)-1-(4-amino-7-(1-((R)-piperidine-2-carbonyl)-2,5-dihydro-1H-pyrrol-3-y1)pyrrolo[2,1-f][1,2,4]triazin-5-yl)piperidin-3-y1)-5-chlorothiophene-2-carboxamide, TFA]

SMILES	IC50 [nM]
CN1CCN(c2cccc(C(=O)N[C@@H]3CCCN(c4cc(-c5cnn(C6CCOC6)c5)n5ncnc(N)c45)C3)n2)CC1 (stereo partly drawn) [Example 803, N-((3R)-1-(4-amino-7-(1-(tetrahydrofuran-3-yl)-1H-pyrazol-4-yl)pyrrolo[2,1-f][1,2,4]triazin-5-yl)piperidin-3-yl)-6-(4-methylpiperazin-1-yl)picolinamide]	2050

— US20260250290A1 (BRISTOL-MYERS SQUIBB COMPANY, priority 2023, published 2026)
